Test results published in ChEMBL document CHEMBL4507260 (2021).

Legend:
Conditions in all cases: Compound concentration 1000.0 nM
[1] = test system: Tyrosine-protein kinase ABL1 (Homo sapiens), P00519 [Q252H]
[2] = test system: ALK tyrosine kinase receptor (Homo sapiens), Q9UM73 [L1196M]
[3] = biological target: Ankyrin repeat and protein kinase domain-containing protein 1 (Homo sapiens) (UniProt Q8NFD2)
[4] = biological target: Serine/threonine-protein kinase BRSK2 (Homo sapiens) (UniProt Q8IWQ3)
[5] = biological target: Cyclin-dependent kinase-like 3 (Homo sapiens) (UniProt Q8IVW4)
[6] = biological target: Casein kinase I isoform delta (Homo sapiens) (UniProt P48730)
[7] = biological target: Death-associated protein kinase 2 (Homo sapiens) (UniProt Q9UIK4)
[8] = biological target: Serine/threonine-protein kinase DCLK1 (Homo sapiens) (UniProt O15075)
[9] = biological target: Epidermal growth factor receptor (Homo sapiens) (UniProt P00533)
[10] = test system: Epidermal growth factor receptor (Homo sapiens), P00533 [G719S]
[11] = test system: Epidermal growth factor receptor (Homo sapiens), P00533 [T790M]
[12] = biological target: Receptor tyrosine-protein kinase erbB-4 (Homo sapiens) (UniProt Q15303)
[13] = biological target: Mitogen-activated protein kinase 15 (Homo sapiens) (UniProt Q8TD08)
[14] = biological target: Serine/threonine-protein kinase/endoribonuclease IRE1 (Homo sapiens) (UniProt O75460)
[15] = biological target: Fibroblast growth factor receptor 4 (Homo sapiens) (UniProt P22455)
[16] = biological target: Receptor-type tyrosine-protein kinase FLT3 (Homo sapiens) (UniProt P36888)
[17] = test system: Receptor-type tyrosine-protein kinase FLT3 (Homo sapiens), P36888 [R834Q]
[18] = biological target: Insulin-like growth factor 1 receptor (Homo sapiens) (UniProt P08069)
[19] = biological target: Tyrosine-protein kinase ITK/TSK (Homo sapiens) (UniProt Q08881)
[20] = biological target: Tyrosine-protein kinase JAK1 (Homo sapiens) (UniProt P23458)
[21] = biological target: LIM domain kinase 1 (Homo sapiens) (UniProt P53667)
[22] = biological target: LIM domain kinase 2 (Homo sapiens) (UniProt P53671)
[23] = biological target: Serine/threonine-protein kinase MARK2 (Homo sapiens) (UniProt Q7KZI7)
[24] = biological target: Dual specificity mitogen-activated protein kinase kinase 2 (Homo sapiens) (UniProt P36507)
[25] = biological target: Dual specificity mitogen-activated protein kinase kinase 3 (Homo sapiens) (UniProt P46734)
[26] = biological target: Serine/threonine-protein kinase MRCK beta (Homo sapiens) (UniProt Q9Y5S2)
[27] = biological target: Serine/threonine-protein kinase 24 (Homo sapiens) (UniProt Q9Y6E0)
[28] = biological target: Serine/threonine-protein kinase mTOR (Homo sapiens) (UniProt P42345)
[29] = biological target: Myosin-IIIb (Homo sapiens) (UniProt Q8WXR4)
[30] = biological target: Serine/threonine-protein kinase Nek4 (Homo sapiens) (UniProt P51957)
[31] = biological target: Serine/threonine-protein kinase Nek9 (Homo sapiens) (UniProt Q8TD19)
[32] = biological target: Mitogen-activated protein kinase 12 (Homo sapiens) (UniProt P53778)
[33] = biological target: Phosphatidylinositol 4-phosphate 3-kinase C2 domain-containing subunit beta (Homo sapiens) (UniProt O00750)
[34] = biological target: Phosphatidylinositol 4,5-bisphosphate 3-kinase catalytic subunit beta isoform (Homo sapiens) (UniProt P42338)
[35] = biological target: Phosphatidylinositol 4-phosphate 5-kinase type-1 alpha (Homo sapiens) (UniProt Q99755)
[36] = biological target: Protein kinase C iota type (Homo sapiens) (UniProt P41743)
[37] = biological target: Serine/threonine-protein kinase D1 (Homo sapiens) (UniProt Q15139)
[38] = biological target: Serine/threonine-protein kinase SIK3 (Homo sapiens) (UniProt Q9Y2K2)
[39] = biological target: Receptor-interacting serine/threonine-protein kinase 1 (Homo sapiens) (UniProt Q13546)
[40] = biological target: Receptor-interacting serine/threonine-protein kinase 4 (Homo sapiens) (UniProt P57078)
[41] = biological target: Ribosomal protein S6 kinase alpha-5 (Homo sapiens) (UniProt O75582)
[42] = biological target: NUAK family SNF1-like kinase 2 (Homo sapiens) (UniProt Q9H093)
[43] = biological target: Mitogen-activated protein kinase kinase kinase 7 (Homo sapiens) (UniProt O43318)
[44] = biological target: BDNF/NT-3 growth factors receptor (Homo sapiens) (UniProt Q16620)
[45] = biological target: Dual specificity protein kinase TTK (Homo sapiens) (UniProt P33981)

Measured: residual activity

NUAK family SNF1-like kinase 2 (Homo sapiens), sequence (Q9H093 whole entry): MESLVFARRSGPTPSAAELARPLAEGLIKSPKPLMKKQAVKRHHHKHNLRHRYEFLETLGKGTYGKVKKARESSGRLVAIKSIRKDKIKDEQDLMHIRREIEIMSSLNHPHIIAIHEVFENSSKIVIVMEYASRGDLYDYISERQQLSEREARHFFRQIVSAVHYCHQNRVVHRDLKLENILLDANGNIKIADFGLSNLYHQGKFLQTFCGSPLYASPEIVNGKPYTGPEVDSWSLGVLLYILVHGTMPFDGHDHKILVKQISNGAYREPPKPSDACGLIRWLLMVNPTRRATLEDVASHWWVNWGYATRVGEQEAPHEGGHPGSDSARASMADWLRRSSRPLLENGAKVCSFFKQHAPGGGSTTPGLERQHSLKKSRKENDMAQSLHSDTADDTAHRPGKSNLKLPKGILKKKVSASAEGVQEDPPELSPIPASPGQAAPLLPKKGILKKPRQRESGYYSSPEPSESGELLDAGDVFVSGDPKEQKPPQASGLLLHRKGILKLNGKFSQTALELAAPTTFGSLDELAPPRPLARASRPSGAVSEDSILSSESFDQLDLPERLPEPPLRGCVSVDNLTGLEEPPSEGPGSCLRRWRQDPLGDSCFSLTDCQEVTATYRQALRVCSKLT
Casein kinase I isoform delta (Homo sapiens), sequence (P48730 whole entry, looked up, canonical isoform): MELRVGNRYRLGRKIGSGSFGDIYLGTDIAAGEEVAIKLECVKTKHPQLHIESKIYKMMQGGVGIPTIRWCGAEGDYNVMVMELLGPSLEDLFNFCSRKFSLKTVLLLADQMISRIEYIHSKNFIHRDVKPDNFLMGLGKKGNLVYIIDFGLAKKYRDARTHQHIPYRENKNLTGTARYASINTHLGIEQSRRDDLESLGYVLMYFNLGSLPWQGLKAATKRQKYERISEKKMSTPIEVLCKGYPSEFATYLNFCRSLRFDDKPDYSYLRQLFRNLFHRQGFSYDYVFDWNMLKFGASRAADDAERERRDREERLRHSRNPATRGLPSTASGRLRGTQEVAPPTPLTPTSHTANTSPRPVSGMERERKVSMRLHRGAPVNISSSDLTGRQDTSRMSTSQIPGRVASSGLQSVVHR
LIM domain kinase 2 (Homo sapiens), sequence (P53671 whole entry, looked up, the tested form may be a part): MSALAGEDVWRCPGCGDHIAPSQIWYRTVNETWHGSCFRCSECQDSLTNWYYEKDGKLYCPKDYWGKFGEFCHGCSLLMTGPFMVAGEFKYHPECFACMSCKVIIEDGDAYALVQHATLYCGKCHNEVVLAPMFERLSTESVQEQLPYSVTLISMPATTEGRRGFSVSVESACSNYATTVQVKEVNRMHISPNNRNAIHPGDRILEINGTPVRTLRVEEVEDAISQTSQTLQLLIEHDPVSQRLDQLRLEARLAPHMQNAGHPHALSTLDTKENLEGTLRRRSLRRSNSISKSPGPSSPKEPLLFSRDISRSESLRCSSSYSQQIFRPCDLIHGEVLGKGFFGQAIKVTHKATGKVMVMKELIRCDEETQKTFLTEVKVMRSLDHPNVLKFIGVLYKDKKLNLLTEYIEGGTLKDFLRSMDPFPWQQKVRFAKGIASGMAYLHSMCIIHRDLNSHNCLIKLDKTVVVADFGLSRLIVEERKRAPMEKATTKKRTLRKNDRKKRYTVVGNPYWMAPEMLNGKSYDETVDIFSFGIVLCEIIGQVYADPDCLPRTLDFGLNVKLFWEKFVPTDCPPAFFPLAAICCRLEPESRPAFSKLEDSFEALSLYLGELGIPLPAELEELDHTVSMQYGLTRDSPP
Fibroblast growth factor receptor 4 (Homo sapiens), sequence (P22455 22-802 limits assumed): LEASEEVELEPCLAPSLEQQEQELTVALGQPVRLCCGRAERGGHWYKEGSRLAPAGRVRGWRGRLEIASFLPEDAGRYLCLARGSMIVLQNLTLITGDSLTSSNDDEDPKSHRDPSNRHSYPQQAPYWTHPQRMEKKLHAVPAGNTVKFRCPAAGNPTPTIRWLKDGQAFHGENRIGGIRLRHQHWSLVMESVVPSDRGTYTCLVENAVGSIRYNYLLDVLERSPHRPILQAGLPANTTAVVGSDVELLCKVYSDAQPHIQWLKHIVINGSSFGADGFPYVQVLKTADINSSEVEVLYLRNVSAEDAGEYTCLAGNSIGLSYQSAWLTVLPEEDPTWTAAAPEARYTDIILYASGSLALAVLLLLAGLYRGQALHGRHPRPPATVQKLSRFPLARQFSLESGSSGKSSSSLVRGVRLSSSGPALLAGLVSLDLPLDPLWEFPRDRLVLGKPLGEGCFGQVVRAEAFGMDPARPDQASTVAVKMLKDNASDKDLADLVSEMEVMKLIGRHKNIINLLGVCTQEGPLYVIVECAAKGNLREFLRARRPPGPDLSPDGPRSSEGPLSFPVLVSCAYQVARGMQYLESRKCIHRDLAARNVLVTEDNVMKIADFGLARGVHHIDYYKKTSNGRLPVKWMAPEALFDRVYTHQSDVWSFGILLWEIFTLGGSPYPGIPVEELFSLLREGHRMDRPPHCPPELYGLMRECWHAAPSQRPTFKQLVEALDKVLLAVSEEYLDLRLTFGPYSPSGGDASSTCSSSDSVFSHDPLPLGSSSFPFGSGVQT
BDNF/NT-3 growth factors receptor (Homo sapiens), sequence (Q16620 32-822 limits assumed): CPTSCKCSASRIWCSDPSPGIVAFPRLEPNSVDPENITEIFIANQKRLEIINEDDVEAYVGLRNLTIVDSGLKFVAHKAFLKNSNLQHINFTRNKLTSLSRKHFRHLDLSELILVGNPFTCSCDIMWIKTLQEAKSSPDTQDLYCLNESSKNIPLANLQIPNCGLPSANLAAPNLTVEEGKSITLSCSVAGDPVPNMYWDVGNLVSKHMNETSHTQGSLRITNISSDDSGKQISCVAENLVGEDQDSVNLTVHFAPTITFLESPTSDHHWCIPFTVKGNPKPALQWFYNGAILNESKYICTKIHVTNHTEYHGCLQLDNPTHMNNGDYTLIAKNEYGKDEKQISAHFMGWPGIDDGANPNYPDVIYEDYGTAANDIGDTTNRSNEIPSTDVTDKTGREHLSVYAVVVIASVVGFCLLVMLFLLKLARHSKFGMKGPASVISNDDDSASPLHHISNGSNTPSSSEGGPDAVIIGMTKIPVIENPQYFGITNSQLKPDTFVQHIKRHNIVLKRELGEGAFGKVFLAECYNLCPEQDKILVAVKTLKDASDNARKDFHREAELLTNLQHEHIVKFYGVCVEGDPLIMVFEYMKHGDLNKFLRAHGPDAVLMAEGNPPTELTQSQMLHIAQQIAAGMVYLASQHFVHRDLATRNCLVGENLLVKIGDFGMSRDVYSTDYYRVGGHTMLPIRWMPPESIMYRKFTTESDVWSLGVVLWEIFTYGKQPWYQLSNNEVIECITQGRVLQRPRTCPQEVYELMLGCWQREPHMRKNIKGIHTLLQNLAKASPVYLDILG
Ankyrin repeat and protein kinase domain-containing protein 1 (Homo sapiens), sequence (Q8NFD2 whole entry, the tested form may be a part): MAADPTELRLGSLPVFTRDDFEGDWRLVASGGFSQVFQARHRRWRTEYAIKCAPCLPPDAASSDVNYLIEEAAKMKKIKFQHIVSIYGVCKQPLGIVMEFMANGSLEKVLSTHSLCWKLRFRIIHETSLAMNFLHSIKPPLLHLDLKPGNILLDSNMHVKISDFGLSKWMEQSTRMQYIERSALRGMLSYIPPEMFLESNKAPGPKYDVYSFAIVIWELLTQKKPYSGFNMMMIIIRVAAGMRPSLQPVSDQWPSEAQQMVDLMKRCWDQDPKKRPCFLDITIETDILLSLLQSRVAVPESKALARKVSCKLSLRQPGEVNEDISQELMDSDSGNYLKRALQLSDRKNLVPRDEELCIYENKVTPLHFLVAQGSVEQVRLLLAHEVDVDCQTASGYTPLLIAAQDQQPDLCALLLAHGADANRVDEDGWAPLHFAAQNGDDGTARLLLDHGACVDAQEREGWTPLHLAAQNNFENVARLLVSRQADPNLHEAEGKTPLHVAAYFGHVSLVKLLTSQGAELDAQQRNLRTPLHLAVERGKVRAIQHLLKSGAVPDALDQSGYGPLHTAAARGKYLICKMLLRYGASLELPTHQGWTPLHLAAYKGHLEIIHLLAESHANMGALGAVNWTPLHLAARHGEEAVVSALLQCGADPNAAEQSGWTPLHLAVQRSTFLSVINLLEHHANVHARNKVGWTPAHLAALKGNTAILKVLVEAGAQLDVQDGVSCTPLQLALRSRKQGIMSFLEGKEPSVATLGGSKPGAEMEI
Phosphatidylinositol 4-phosphate 5-kinase type-1 alpha (Homo sapiens), sequence (Q99755 whole entry): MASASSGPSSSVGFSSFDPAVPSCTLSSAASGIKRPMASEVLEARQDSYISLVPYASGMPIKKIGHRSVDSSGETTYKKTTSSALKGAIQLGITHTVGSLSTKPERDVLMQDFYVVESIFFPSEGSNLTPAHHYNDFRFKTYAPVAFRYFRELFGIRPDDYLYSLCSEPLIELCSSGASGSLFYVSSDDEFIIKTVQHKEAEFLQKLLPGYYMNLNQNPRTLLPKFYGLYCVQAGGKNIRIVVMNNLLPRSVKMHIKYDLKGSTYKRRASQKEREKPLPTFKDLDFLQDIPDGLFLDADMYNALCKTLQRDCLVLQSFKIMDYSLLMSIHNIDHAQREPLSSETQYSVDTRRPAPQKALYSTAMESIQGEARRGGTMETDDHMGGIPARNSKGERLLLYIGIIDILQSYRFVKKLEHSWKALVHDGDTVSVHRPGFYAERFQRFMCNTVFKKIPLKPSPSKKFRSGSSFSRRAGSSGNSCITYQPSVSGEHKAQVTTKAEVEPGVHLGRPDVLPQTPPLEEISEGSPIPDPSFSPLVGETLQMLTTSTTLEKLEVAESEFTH
Serine/threonine-protein kinase 24 (Homo sapiens), sequence (Q9Y6E0 whole entry, looked up): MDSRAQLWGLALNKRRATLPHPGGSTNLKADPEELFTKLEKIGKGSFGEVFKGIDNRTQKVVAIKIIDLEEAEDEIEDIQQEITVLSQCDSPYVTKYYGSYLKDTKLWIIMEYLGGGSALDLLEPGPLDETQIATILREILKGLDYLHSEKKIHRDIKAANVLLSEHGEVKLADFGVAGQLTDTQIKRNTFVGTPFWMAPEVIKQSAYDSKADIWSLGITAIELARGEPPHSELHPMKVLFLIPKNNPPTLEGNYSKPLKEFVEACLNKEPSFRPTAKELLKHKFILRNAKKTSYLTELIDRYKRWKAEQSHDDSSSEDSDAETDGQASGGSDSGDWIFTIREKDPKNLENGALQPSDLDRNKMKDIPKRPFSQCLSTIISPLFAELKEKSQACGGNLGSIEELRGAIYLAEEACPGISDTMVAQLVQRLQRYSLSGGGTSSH

c1ccc(N2CCN(Cc3nc4ccccc4[nH]3)CC2)nc1 [ABT-724]
inactive: [1] 93% | [2] 97% | [3] 100% | [4] 100% | [5] 100% | [6] 95% | [7] 86% | [8] 100% | [9] 99% | [10] 91% | [11] 99% | [12] 95% | [13] 100% | [14] 100% | [15] 93% | [16] 100% | [17] 100% | [18] 100% | [19] 100% | [20] 91% | [21] 100% | [22] 100% | [23] 100% | [24] 100% | [25] 96% | [26] 100% | [27] 100% | [28] 100% | [29] 95% | [30] 100% | [31] 100% | [32] 74% | [33] 85% | [34] 100% | [35] 79% | [36] 97% | [37] 95% | [38] 91% | [39] 100% | [40] 100% | [41] 85% | [42] 100% | [43] 52% | [44] 100% | [45] 100%

CSc1cccnc1N1CCN(Cc2nc3ccccc3[nH]2)CC1 [A-769]
inactive: [1] 67% | [2] 100% | [3] 92% | [4] 100% | [5] 100% | [6] 100% | [7] 100% | [8] 82% | [9] 100% | [10] 98% | [11] 85% | [12] 83% | [13] 82% | [14] 70% | [15] 89% | [16] 100% | [17] 100% | [18] 100% | [19] 97% | [20] 100% | [21] 100% | [22] 100% | [23] 100% | [24] 70% | [25] 100% | [26] 100% | [27] 100% | [28] 100% | [29] 100% | [30] 88% | [31] 100% | [32] 98% | [33] 94% | [34] 74% | [35] 96% | [36] 100% | [37] 100% | [38] 100% | [39] 100% | [40] 66% | [41] 100% | [42] 100% | [43] 74% | [44] 100% | [45] 98%
